Consider two compounds from publication PMC8546428, “Convergent olfactory trace amine-associated receptors detect biogenic polyamines with distinct motifs via a conserved binding site” (The Journal of Biological Chemistry, 2021).

The target in one experiment is T1, mTAAR9 E7.36D (Mus musculus, UniProt Q5QD04, E294D).
T1 construct: expressed in transfected cells; host or cells: Hana3A (HEK293-derived)
T1 sequence (Q5QD04 1-348 E294D): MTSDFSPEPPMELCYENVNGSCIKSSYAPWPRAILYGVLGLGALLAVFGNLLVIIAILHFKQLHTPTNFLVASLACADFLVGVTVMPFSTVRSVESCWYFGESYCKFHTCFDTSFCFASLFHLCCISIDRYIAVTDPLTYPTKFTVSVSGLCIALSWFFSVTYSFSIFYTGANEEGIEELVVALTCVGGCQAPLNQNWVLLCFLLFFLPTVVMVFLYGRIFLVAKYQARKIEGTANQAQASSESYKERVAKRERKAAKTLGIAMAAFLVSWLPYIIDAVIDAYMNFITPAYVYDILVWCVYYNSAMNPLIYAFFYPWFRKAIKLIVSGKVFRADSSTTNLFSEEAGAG
As to the kind of experiment: CRE-luciferase reporter assay, mTAAR9 mutant in Hana3A. In kind it is cell-based. Conditions: read-out: EC50 (mean ± S.D., n = 3). On the technique in general: Reporter assays use an easily measured gene product as a stand-in for the process of interest.

Another experiment has as its target T2, mTAAR9 W7.40A (Mus musculus, UniProt Q5QD04, W298A).
T2 construct: expressed in transfected cells; host or cells: Hana3A (HEK293-derived)
T2 sequence (Q5QD04 1-348 W298A): T1 sequence (Q5QD04 1-348 E294D) with D294E, W298A
Described as above. Conditions: read-out: EC50 (mean ± S.D., n = 3). In kind it is cell-based.

For the next experiment, the target named is T3, sTAAR365 T7.42A (Petromyzon marinus, UniProt A0A678XMK4, T298A).
T3 sequence (A0A678XMK4 1-365 T298A): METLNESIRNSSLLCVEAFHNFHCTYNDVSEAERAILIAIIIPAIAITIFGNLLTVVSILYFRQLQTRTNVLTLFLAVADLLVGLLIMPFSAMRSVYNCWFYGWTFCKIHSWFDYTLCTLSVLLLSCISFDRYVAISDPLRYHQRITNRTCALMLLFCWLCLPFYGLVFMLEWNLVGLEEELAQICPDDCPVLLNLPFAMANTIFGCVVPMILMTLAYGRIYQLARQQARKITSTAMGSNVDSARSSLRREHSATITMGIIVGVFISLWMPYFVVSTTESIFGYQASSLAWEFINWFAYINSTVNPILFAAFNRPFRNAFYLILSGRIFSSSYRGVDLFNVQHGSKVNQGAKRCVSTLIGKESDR
As to the kind of experiment: cell-based.

A further experiment concerns the target sTAAR365 Y7.43A (Petromyzon marinus, UniProt A0A678XMK4, Y299A). Nature of the experiment: cell-based.
Another experiment deals with sTAAR365 Y7.43S (Petromyzon marinus, UniProt A0A678XMK4, Y299S). As to the kind of experiment: cell-based.
For a further experiment, the target named is T4, WT mTAAR9 (Mus musculus, UniProt Q5QD04).
T4 construct: Rho-tag (first 20 amino acids of bovine rhodopsin) (N); expressed in transfected cells; host or cells: Hana3A (HEK293-derived)
T4 sequence (Q5QD04 1-348): T1 sequence (Q5QD04 1-348 E294D) with D294E
Nature of the experiment: CRE-luciferase reporter assay, wild-type mTAAR9 in Hana3A. In kind it is cell-based. Conditions: mouse TAAR9, ligand 1 mM, Fig. 1B. The method, then: (§1) Mammalian TAAR9 plasmids were transfected into Hana3A cells along with a cAMP-dependent luciferase reporter plasmid (CRE-Luc). Transfected cells were incubated with tested ligands, and luciferase activity was quantified with a […] substrate as a reporter for Golf-mediated TAAR activation. Luciferase activity was indicated by the luminescence value and normalized as a fold-increase over the response to the vehicle stimuli (mean ± S.D., n = 3). […] B, Hana3A cells expressing mouse, rat, human, cat, hamster, and rabbit TAAR9 were incubated with either vehicle or tested ligands (1 mM) and assayed for reporter activity. C, concentration-dependent luciferase activity in Hana3A cells expressing mouse, rat, and cat TAAR9 receptors stimulated with cadaverine, spermidine, and spermine.
(§2) The firefly luciferase and renilla luciferase activity was measured with a BioTek microplate reader following manufacturer’s instructions.

The subject of a further experiment is Cat TAAR9. Conditions: cat TAAR9, ligand 1 mM, Fig. 1B. The method, then: (§3) We examined the response of TAAR9s from rat, human, hamster, and rabbit to the stimulation of 1 mM amines using a well-established cAMP response element (CRE)-driven luciferase reporter assay based on Golf-mediated cAMP signal transduction ([5], [24]). In addition to the four mTAAR9 ligands, we included putrescine, which is also a polyamine and precursor of spermine/spermidine biosynthesis.
as §1, §2

In another experiment the target is rabbit TAAR9 (Oryctolagus cuniculus, UniProt G1SUU9). The conditions noted are these: rabbit TAAR9, ligand 1 mM, Fig. 1B. The method, then:
as §3, §1, §2

A further experiment has as its target human TAAR9 (Homo sapiens, UniProt Q96RI9). Conditions: human TAAR9, ligand 1 mM, Fig. 1B. The method, then:
as §3, §1, §2

In another experiment the target is hamster TAAR9 (Mesocricetus auratus, UniProt A0A1U7R5X1). Conditions: hamster TAAR9, ligand 1 mM, Fig. 1B. The method, then:
as §3, §1, §2

The subject of a further experiment is sTAAR365 Y6.51A. As to the kind of experiment: cAMP TR-FRET assay, sTAAR365 mutant in HEK293T. The conditions noted are these: cAMP production. In kind it is cell-based, sea lamprey. The text has this:
All mutants were verified by DNA sequencing.
On the technique in general: TR-FRET usually uses a lanthanide donor and a delayed reading to cut background.

Numbering of substitutions follows the chain as printed.

Sequence of sTAAR365 Y7.43A (A0A678XMK4 whole entry Y299A): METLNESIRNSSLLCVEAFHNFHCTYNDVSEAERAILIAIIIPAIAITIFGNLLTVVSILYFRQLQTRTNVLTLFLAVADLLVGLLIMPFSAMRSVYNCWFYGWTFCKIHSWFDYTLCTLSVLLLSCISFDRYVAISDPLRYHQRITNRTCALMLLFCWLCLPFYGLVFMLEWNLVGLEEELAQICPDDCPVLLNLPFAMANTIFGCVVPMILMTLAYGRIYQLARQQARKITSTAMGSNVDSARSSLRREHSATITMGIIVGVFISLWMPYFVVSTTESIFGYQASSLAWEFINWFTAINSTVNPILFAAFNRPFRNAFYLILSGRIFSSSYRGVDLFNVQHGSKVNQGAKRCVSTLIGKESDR
Sequence of human TAAR9 (Q96RI9 whole entry): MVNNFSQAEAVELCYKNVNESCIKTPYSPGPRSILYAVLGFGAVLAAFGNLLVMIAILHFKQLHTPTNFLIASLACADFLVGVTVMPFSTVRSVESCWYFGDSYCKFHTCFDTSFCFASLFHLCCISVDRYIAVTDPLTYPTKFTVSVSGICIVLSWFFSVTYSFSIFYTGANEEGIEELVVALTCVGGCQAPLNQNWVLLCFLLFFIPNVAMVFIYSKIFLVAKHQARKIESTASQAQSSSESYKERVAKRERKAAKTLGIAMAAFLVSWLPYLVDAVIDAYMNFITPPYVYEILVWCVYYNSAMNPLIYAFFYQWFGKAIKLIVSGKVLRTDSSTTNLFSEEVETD
Sequence of hamster TAAR9 (A0A1U7R5X1 1-348): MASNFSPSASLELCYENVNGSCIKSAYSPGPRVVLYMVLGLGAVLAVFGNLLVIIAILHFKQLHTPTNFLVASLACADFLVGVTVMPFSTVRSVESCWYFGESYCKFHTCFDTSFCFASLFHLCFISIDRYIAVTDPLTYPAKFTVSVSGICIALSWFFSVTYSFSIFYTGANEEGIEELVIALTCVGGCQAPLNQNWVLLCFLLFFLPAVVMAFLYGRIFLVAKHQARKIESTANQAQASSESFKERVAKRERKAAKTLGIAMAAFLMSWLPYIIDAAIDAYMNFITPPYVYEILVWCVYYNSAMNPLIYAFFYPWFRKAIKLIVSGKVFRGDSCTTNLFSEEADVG
Sequence of rabbit TAAR9 (G1SUU9 1-348): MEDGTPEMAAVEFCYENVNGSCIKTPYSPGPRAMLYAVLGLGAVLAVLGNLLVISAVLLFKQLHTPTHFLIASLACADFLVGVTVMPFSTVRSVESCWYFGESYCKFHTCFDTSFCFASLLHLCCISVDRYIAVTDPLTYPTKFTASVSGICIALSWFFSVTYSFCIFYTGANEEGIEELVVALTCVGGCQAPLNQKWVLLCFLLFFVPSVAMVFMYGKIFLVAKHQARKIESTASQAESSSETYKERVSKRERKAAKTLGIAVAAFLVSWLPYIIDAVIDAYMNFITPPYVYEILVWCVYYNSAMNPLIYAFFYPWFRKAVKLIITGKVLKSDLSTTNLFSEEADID
Sequence of sTAAR365 Y7.43S (A0A678XMK4 whole entry Y299S): as the sequence (A0A678XMK4 whole entry Y299A) above, with A299S counted along it

On to `NCCCCCN` [cadaverine], for which the EC50 at mTAAR9 E7.36D was more than 1000 µM; at mTAAR9 W7.40A it was more than 1000 µM; at sTAAR365 T7.42A, 31 ± 24 µM; on sTAAR365 Y7.43A it was 144 ± 11 µM; on sTAAR365 Y7.43S, 124 ± 9 µM.

As for `NCCCCN` [putrescine], the “reporter activity (activation of TAAR9)” value at WT mTAAR9, in the experiment on Cat TAAR9, on rabbit TAAR9, at human TAAR9 and on hamster TAAR9 was “not activated” each time. On sTAAR365 T7.42A, this compound had an EC50 of more than 500 µM. In the experiment on sTAAR365 Y6.51A, the “EC50 (mean ± S.D., n = 3)” value is reported as “loss”.

Usually EC50 stands for the concentration giving half of the maximal effect.
